Results: article PMC5904360, “Soluble N-Ethylmaleimide-Sensitive Factor Attachment Protein Receptor-Derived Peptides for Regulation of Mast Cell Degranulation” (Frontiers in Immunology, 2018)

Tests used:
[1] = target: T1, SN23-Syn4-Vp8 SNARE complex (Rattus norvegicus, UniProt O70377+Q08850+Q9WUF4); assay: SNARE-driven membrane fusion (total lipid mixing) assay with proteoliposomes; type: biochemical; settings: for inhibition of membrane fusion (lipid mixing): inhibitor applied to T-vesicles, T:V 9:1, 37°C, NBD dequenching, Vp2S/Vp8S at 10 µM, three independent experiments (Figure 3B-D); for inhibition of membrane fusion, peptide added before preincubation: peptide added before preincubation of T- and V-liposomes at 4°C overnight (Figure 4A)
T1 construct: Syn4 (amino acids 1–298); SNAP-23 (amino acids 1–210); VAMP8 (amino acids 1–100); GST (N, cleaved yes); made in house; host or cells: Escherichia coli Rosetta(DE3)pLysS
T1 sequence (Q08850 1-298): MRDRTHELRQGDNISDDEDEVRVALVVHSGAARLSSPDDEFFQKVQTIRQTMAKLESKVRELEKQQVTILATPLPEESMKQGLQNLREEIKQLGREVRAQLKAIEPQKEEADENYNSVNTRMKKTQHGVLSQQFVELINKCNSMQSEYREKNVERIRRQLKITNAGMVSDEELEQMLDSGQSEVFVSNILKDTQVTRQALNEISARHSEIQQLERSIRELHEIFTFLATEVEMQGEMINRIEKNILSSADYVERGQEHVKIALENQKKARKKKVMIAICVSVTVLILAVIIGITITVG
T1 sequence (O70377 1-210): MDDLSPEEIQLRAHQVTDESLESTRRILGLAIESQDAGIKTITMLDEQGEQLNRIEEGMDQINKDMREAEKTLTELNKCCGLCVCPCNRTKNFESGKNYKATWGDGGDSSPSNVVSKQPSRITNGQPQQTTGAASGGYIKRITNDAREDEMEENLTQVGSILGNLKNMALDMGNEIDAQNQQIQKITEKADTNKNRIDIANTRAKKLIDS
T1 sequence (Q9WUF4 1-100): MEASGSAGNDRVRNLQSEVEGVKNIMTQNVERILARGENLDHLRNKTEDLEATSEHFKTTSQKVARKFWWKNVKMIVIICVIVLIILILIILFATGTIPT
From the text: Total RNA was obtained from RBL-2H3 cells using TRIzol® Reagent (#15596026, Invitrogen, Carlsbad, CA, USA) and served as a template for cDNA synthesis with M-MLV reverse transcriptase (M1705, Promega, Madison, WI, USA) according to the manufacturer’s protocol. The cDNAs amplified for rat Syn4, SNAP-23, VAMP2, VAMP4, VAMP7, and VAMP8 using each primer pair ([4]), were cloned into the pGEX-4T 1 vector. The mast cell SNARE proteins [Syn4 (amino acids 1–298), SNAP-23 (amino acids 1–210), full-length VAMP2 (VpF, amino acids 1–116), VAMP4 (amino acids 1–141), and VAMP8 (amino acids 1–100)] were expressed in Escherichia coli Rosetta(DE3)pLysS (#70956, Novagen, Darmstadt, Germany) and purified as glutathione-S-transferase-tagged fusion proteins as reported previously ([8]).
To prepare the unilamellar liposomes, a 50-mM lipid mixture of palmitoyl-2-oleoylphosphatidylcholine (POPC) (#850457, Avanti Polar Lipids, Alabaster, AL, USA):1,2-dioleoyl-phosphatidylserine (DOPS) (#840035, Avanti Polar Lipids) at 65:35 mol% was dried in a glass tube under a gentle stream of nitrogen gas and then exposed to a vacuum overnight. The resultant lipid film was resuspended in dialysis buffer (25 mM HEPES and 100 mM KCl, pH 7.4) by vortexing, followed by an extrusion step with polycarbonate membrane filters having a pore size of 100 nm (#610005, Avanti Polar Lipids). To prepare proteoliposomes, binary T-SNAREs, which were pre-formed by mixing Syn4 and SNAP-23 at room temperature for 60 min, were incubated with 50 mM unilamellar liposomes for 15 min at the same temperature, resulting in a 50:1 lipid/protein molar ratio ([9]).
For the preparation of V-SNARE proteoliposomes, a 10-mM premixed lipid solution [POPC:DOPS:N-(7-nitro-2-1,3-benzoxadiazol-4-yl (NBD))-phosphatidylserine (#810198, Avanti Polar Lipids):[…] (#810150, Avanti Polar Lipids) = 62:35:1.5:1.5 (molar ratio)] was used for the preparation of fluorescent liposomes in the same manner as above. The prepared liposomes were then mixed with VAMP2 for 15 min at room temperature. The liposome/protein mixture was diluted twice to bring the concentration of n-octyl glucoside (O8001, Sigma-Aldrich) below the critical micelle concentration. After overnight dialysis against 1L dialysis buffer at 4°C to remove the detergent, SM-2 bio-beads (#1523920, Bio-Rad Laboratories, Hercules, CA, USA) were added to the sample to remove any remaining n-octyl glucoside. The solution was then centrifuged at 10,000 × g to remove the protein/lipid aggregates, and the final lipid concentrations of both the T- and V-liposomes were adjusted to 1 mM with a lipid-to-protein ratio of 50:1.
A total lipid mixing assay using the T- and V-liposomes was performed as described previously with minor modifications ([8]). Briefly, peptide inhibitors were applied to the T-vesicles at the indicated concentrations and then the T-vesicles were mixed with the V-vesicles in a 384-well plate for the initiation of fusion, with a T- to V-vesicle volume ratio of 9:1. The fusion was monitored using the dequenching of NBD fluorescence signal (excitation 465 nm/emission 530 nm). After at least 80 min of fusion, the maximum NBD signal was obtained by adding 0.1% Triton X-100™. All the lipid-mixing experiments were performed at 37°C.

SN23-Syn4-Vp2 complex = target: T2, SN23-Syn4-Vp2 complex (Rattus norvegicus, UniProt O70377+P63045+Q08850); assay: Co-immunoprecipitation of SNARE complexes in activated RBL-2H3 cells, anti-SNAP-23 blot; type: cell-based; settings: peptides added to the medium after A23187 pretreatment; IP of Vp2, blot anti-SNAP-23 (Figure 4C)
T2 construct: Lysates of RBL-2H3 cells; endogenous in cells; host or cells: RBL-2H3 (ATCC CRL-2256)
Experimental: Lysates of RBL-2H3 cells (0.5–1 × 10^6 cells), which were obtained by the addition of 1 mL lysis buffer (50 mM Tris–HCl, 150 mM NaCl, 1% Triton X-100™, 1 mM EDTA, pH 7.5) supplemented with a protease inhibitor cocktail (Calbiochem®, Merck Millipore, Billerica, MA, USA), were centrifuged at 13,000 g at 4°C to remove cell debris and precleared with 100 µL protein G Sepharose® (GE Healthcare) for 2 h at 4°C. The precleared lysates were incubated with antibodies against SNARE proteins (Syn4, SNAP-23, VAMP2, and VAMP8) for 2 h at 4°C for binding, and then the antibody–antigen complexes were precipitated by incubation with a protein G slurry overnight with constant shaking. After an extensive washing step with lysis buffer, an immunoblotting analysis was performed for the precipitates. The immunoprecipitated proteins and cell lysates were electrophoresed on 12% sodium dodecyl sulfate-polyacrylamide gel electrophoresis gels and then transferred to nitrocellulose blotting membranes (GE Healthcare). After blocking the membranes in TBST (10 mM Tris–HCl, 150 mM NaCl, and 0.05% Tween® 20, pH 8) containing 0.5% BSA and 5% skim milk for 1 h at room temperature, primary anti-SNAP-23 antibody (1:1,000 dilution) in TBST supplemented with 1% BSA and 0.01% sodium azide was added and incubated at 4°C overnight. The membranes were washed with TBST, treated with a horseradish peroxidase-conjugated secondary anti-mouse IgG antibody (A4416, Sigma-Aldrich), and visualized using enhanced chemiluminescence solution for the development of a luminescent signal.

T2 sequence (P63045 whole entry, one chain of several): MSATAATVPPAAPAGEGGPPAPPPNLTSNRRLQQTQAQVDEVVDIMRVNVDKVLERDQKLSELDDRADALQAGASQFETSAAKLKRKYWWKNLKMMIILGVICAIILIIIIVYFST

EDEMEENLTQVGSILGN [SC23N, 17-mer peptide, N-terminal region of SNAP-23 SNARE motif SC23]
inhibition of membrane fusion (lipid mixing) [1]: inhibited membrane fusion by both the SN23-Syn4-Vp2 and SN23-Syn4-Vp8 complexes
inhibition of membrane fusion, peptide added before preincubation [1]: inhibited the membrane fusion induced by both SN23-Syn4-Vp2 and SN23-Syn4-Vp8
SNARE complex formation in cells (amount of SN23-Syn4-Vp2 complex) (SN23-Syn4-Vp2 complex): reduced

LQSEVEGVKNIMTQNVE [Vp8N, 17-mer peptide, N-terminal region of VAMP8 SNARE motif]
inhibition of membrane fusion (lipid mixing) [1]: specific to the SN23-Syn4-Vp8 complex
inhibition of membrane fusion, peptide added before preincubation [1]: inhibited the membrane fusion driven only by their cognate SNARE complexes

SARHSEIQQLERTIREL [Syn4N, 17-mer peptide, N-terminal region of syntaxin 4 SNARE motif]
inhibition of membrane fusion (lipid mixing) [1]: inhibited membrane fusion by both the SN23-Syn4-Vp2 and SN23-Syn4-Vp8 complexes
inhibition of membrane fusion, peptide added before preincubation [1]: inhibited the membrane fusion induced by both SN23-Syn4-Vp2 and SN23-Syn4-Vp8
SNARE complex formation in cells (amount of SN23-Syn4-Vp2 complex) (SN23-Syn4-Vp2 complex): reduced
